Test results reported in publication PMC7377239, “Cardiovascular Effects of Polychlorinated Biphenyls and Their Major Metabolites” (Environmental Health Perspectives, 2020).
Where two headings read alike, the source gives them in different places.

Test system: iCell cardiomyocytes (human iPSC-derived cardiomyocytes)
Experiment: High-content imaging of cytotoxicity and mitochondrial integrity in iPSC-CMs
Format: cell-based
Conditions: Homo sapiens, Cardiomyocyte; for viability at 0.01 µM / activity at 0.01 µM / viability at 0.1 µM / activity at 0.1 µM / viability at 1 µM / activity at 1 µM / viability at 10 µM / activity at 10 µM / viability at 100 µM / activity at 100 µM: 0.00 µM = 100.00; for viability at 0.1 µM / activity at 0.1 µM: 0.10 µM
Description: Details on cardiomyocyte cell culture are described in detail elsewhere ([Grimm et al. 2015b]; [Sirenko et al. 2013a]). Briefly, tissue-culture treated 384 well plates were gelatinized with 25μL per well of 0.1% (w/v) gelatin in water for 2 h at 37°C and 5% CO2 . Individual vials of cells were thawed for 4 min in a water bath maintained at 37°C. Thawed cells were resuspended in 10ml plating medium containing 1:500 (vol/vol) penicillin/streptomycin solution at room temperature (RT). Live cell counts for each cell suspension were determined by trypan blue staining and cells were further diluted to provide final cell densities of 2×10^5 viable cells/ml. Thus, 5,000 cells suspended in 25μL media were transferred per well after the gelatin solution had been discarded. Cell culture plates were rested for 30 min at RT before they were incubated for 48 h at 37°C and 5% CO2 . Then, a media exchange with 30μL of fresh maintenance medium containing 1:500 (vol/vol) penicillin/streptomycin solution was performed, and cell media were subsequently changed every 48 h for 12 d. On the experiment day, the medium was completely exchanged with either 25μL (for Ca^2+ flux assay) or 40μL (for imaging) of fresh medium.
Cytotoxicity and effects on mitochondrial integrity of various PCBs and PCB metabolites in induced pluripotent stem cell-CMs (iPSC-CMs) were assessed using high-content cellular imaging in ImageXpress® Micro Confocal (Molecular Devices) as detailed in ([Grimm et al. 2015b]). Cells in 40μL maintenance media were treated with 10μL of 5× chemical solutions to provide test chemicals at final assay concentrations ranging from 0.01 to 100μM . […] Next, sample wells were treated with 50μL equilibrated 2× concentrated staining solution (maintenance medium containing Hoechst 33342, 4μg/mL and MitoTracker™ Orange, 0.4μM ). Microplates were then incubated for 15 min at 37°C and 5% CO2 before cells were washed twice with 30μL maintenance medium. All media were aspirated and discarded, and cells were fixed with […] of a 3.7% formaldehyde solution for 15 min at 37°C and 5% […] . Fixed cells were washed 3× with 25μL PBS before image acquisition using the DAPI (Hoechst 33342) and Cy3 (MitoTracker™ Orange) filters at 10× magnification on the ImageXpress® Micro Confocal high-content confocal microscope (Molecular Devices). The multiwavelength cell scoring applications module in MetaXpress® was used to analyze acquired images.
Phenotypic responses were quantitatively assessed using concentration–response modeling as detailed elsewhere ([Sirenko et al. 2017]). Briefly, phenotypic readouts were normalized to vehicle controls and fit to a four-parameter logistic model in R studio software (version 3.1.1; R Development Core Team). Following EPA guidance on dose–response modeling, a cutoff of one standard deviation across means of vehicle control (i.e., 0.5% vol/vol DMSO in cell culture media) wells was applied to determine the point-of-departure (POD) values ([U.S. EPA 2012]). In the absence of a concentration–response, the highest tested concentration (i.e., 100μM ) was assigned as “no observable adverse effect level.” The concentration–response assessment R script, as well as templates for vehicle and concentration–response data, are available as a supplement to Sirenko et al. ([2017]). The ability of physicochemical properties to predict differences in PODs were evaluated by multiregression and mixed-effects modeling using R.

[1] = 1.5 h, 90min, read-out: cm.cam.90min
[2] = 1.5 h, 90min, read-out: cm.mii.90min
[3] = 1.5 h, 90min, read-out: cm.mito.90min
[4] = 1.5 h, 90min, read-out: cm.tc.90min
[5] = 1.5 h, 90min, read-out: cm.cam.90min POD
[6] = 1.5 h, 90min, read-out: cm.mii.90min POD
[7] = 1.5 h, 90min, read-out: cm.mito.90min POD
[8] = 1.5 h, 90min, read-out: cm.tc.90min POD
[9] = 24 h, 24hrs, read-out: cm.cam.24hrs
[10] = 24 h, 24hrs, read-out: cm.mii.24hrs
[11] = 24 h, 24hrs, read-out: cm.mito.24hrs
[12] = 24 h, 24hrs, read-out: cm.tc.24hrs
[13] = 24 h, read-out: cm.cam.24hrs POD
[14] = 24 h, read-out: cm.mii.24hrs POD
[15] = 24 h, read-out: cm.mito.24hrs POD
[16] = 24 h, read-out: cm.tc.24hrs POD

Clc1ccc(-c2cc(Cl)c(Cl)c(Cl)c2)cc1Cl [PCB126]
viability at 0.01 µM [1]: 107% | activity at 0.01 µM [2]: 97.6% | activity at 0.01 µM [3]: 108% | viability at 0.01 µM [4]: 107% | viability at 0.1 µM [1]: 101% | activity at 0.1 µM [2]: 106% | activity at 0.1 µM [3]: 101% | viability at 0.1 µM [4]: 101% | viability at 1 µM [1]: 97.4% | activity at 1 µM [2]: 111% | activity at 1 µM [3]: 97.2% | viability at 1 µM [4]: 97.2% | viability at 10 µM [1]: 97.1% | activity at 10 µM [2]: 103% | activity at 10 µM [3]: 96.8% | viability at 10 µM [4]: 96.8% | viability at 100 µM [1]: 97.2% | activity at 100 µM [2]: 111% | activity at 100 µM [3]: 96.7% | viability at 100 µM [4]: 96.7% | minimal effective concentration [5]: 100 µM | minimal effective concentration [6]: 100 µM | minimal effective concentration [7]: 100 µM | minimal effective concentration [8]: 100 µM | viability at 0.01 µM [9]: 94.2% | activity at 0.01 µM [10]: 109% | activity at 0.01 µM [11]: 94% | viability at 0.01 µM [12]: 93.7% | viability at 0.1 µM [9]: 97.6% | activity at 0.1 µM [10]: 80.7% | activity at 0.1 µM [11]: 96.1% | viability at 0.1 µM [12]: 98% | viability at 1 µM [9]: 101% | activity at 1 µM [10]: 103% | activity at 1 µM [11]: 103% | viability at 1 µM [12]: 101% | viability at 10 µM [9]: 90.4% | activity at 10 µM [10]: 74% | activity at 10 µM [11]: 88.5% | viability at 10 µM [12]: 90.2% | viability at 100 µM [9]: 46.6% | activity at 100 µM [10]: 101% | activity at 100 µM [11]: 35.6% | viability at 100 µM [12]: 48.4% | minimal effective concentration [13]: 7.03 µM | minimal effective concentration [14]: 100 µM | minimal effective concentration [15]: 7.54 µM | minimal effective concentration [16]: 6.48 µM

COc1cc(Cl)c(-c2cc(Cl)ccc2Cl)cc1Cl [4-OMe PCB52]
viability at 0.01 µM [1]: 94.3% | activity at 0.01 µM [2]: 101% | activity at 0.01 µM [3]: 94.1% | viability at 0.01 µM [4]: 94.2% | viability at 0.1 µM [1]: 98.7% | activity at 0.1 µM [2]: 90.9% | activity at 0.1 µM [3]: 98.7% | viability at 0.1 µM [4]: 98.8% | viability at 1 µM [1]: 101% | activity at 1 µM [2]: 95.2% | activity at 1 µM [3]: 101% | viability at 1 µM [4]: 101% | viability at 10 µM [1]: 100% | activity at 10 µM [2]: 108% | activity at 10 µM [3]: 99.8% | viability at 10 µM [4]: 100% | viability at 100 µM [1]: 0.37% | activity at 100 µM [2]: 69.6% | activity at 100 µM [3]: 0.37% | viability at 100 µM [4]: 0.46% | minimal effective concentration [5]: 27.6 µM | minimal effective concentration [6]: 57.2 µM | minimal effective concentration [7]: 18.6 µM | minimal effective concentration [8]: 33 µM | viability at 0.01 µM [9]: 97.9% | activity at 0.01 µM [10]: 95.9% | activity at 0.01 µM [11]: 98.7% | viability at 0.01 µM [12]: 98.3% | viability at 0.1 µM [9]: 106% | activity at 0.1 µM [10]: 91.2% | activity at 0.1 µM [11]: 107% | viability at 0.1 µM [12]: 106% | viability at 1 µM [9]: 102% | activity at 1 µM [10]: 99.8% | activity at 1 µM [11]: 101% | viability at 1 µM [12]: 102% | viability at 10 µM [9]: 102% | activity at 10 µM [10]: 78.7% | activity at 10 µM [11]: 103% | viability at 10 µM [12]: 102% | viability at 100 µM [9]: 4.05% | activity at 100 µM [10]: 55.8% | activity at 100 µM [11]: 2.86% | viability at 100 µM [12]: 4.37% | minimal effective concentration [13]: 33 µM | minimal effective concentration [14]: 5.58 µM | minimal effective concentration [15]: 35.8 µM | minimal effective concentration [16]: 35 µM
